Read-outs that look alike come from different tables or passages of the source.

Data set [1] concerns wild amaranth. Briefly: Nonselective composition of 1 uracil compound and 2 herbicidally active compounds, plant mortality. The data set is classed as in vivo.
Text: (§1) X is % damage by uracil compound (a) of formula 1 at the rate of application of p kg/ha; Y is % damage by conventional herbicidal compound (b) at the rate of application of q kg/ha; and E is the expected damage caused by compounds (a) and (b) at a rate of application of p and q kg/ha.
(§2) The expected activity for a given combination of two herbicides can be calculated using equation 1 above.
For data set [2], the system named is ryegrass. The description is as above. In kind it is in vivo.
Text: as §1, §2
Data set [3] deals with Ludwigia prostrate. Briefly: Paddy field farming herbicidal composition test, plant mortality. The data set is classed as in vivo.
Text: as §1, §2
The test system of data set [4] is rice plant. Briefly: Paddy field farming herbicidal composition test, plant mortality (crop).
Text: as §1, §2
Data set [5] has as its system Monochoria vaginalis. Briefly: Paddy field farming herbicidal composition test, plant mortality. In kind it is in vivo.
Text: as §1, §2
In data set [6] the test system is Porippa islandica. Briefly: Dry field farming herbicidal composition test, plant mortality. In kind it is in vivo.
Text: as §1, §2
Data set [7] concerns wheat. Briefly: Dry field farming herbicidal composition test, plant mortality (crop).
Text: as §1, §2
Data set [8] concerns Capsella bursapastoris. Briefly: Dry field farming herbicidal composition test, plant mortality. The data set is classed as in vivo. To be noted: in % (unit assumed).
Text: as §1, §2
For data set [9], the system named is Lamium amplexicaule. The data set is described as above. To be noted: in % (unit assumed). The data set is classed as in vivo.
Text: as §1, §2
In data set [10] the test system is Alopecurus aequalis. Described as above. In kind it is in vivo. To be noted: in % (unit assumed).
Text: as §1, §2
Where [11] appears, read: Amaranthus caudatus, 480 h, read-out: Wild amaranth mortality (measured value).
The mark [12] stands for this setting: 480 h, read-out: ryegrass mortality (measured value).

As to `CCOCN(C(=O)CCl)c1c(C)cccc1CC` [Acetochlor], the pest or weed control at 375 g/ha in [1] (setting [11]) was 10%; in data set [2] (setting [12]) it was 30%.
For the molecule `Nc1cc(Cl)nc(C(=O)O)c1Cl` [Aminopyralid], in data set [1] (250 g ai/ha), the “Wild amaranth mortality (measured value)” value came out at 20. Further, the “ryegrass mortality (measured value)” value in data set [2] (250 g ai/ha) came out at 0.
On to `COC(=O)NS(=O)(=O)c1ccc(N)cc1` [Asulam], for which the pest or weed control at 1250 g/ha in [1] (setting [11]) stood at 20%; in data set [2] (setting [12]), 25%.
Take `CCNc1nc(Cl)nc(NC(C)C)n1` [Atrazine]: the pest or weed control at 200 g/ha in data set [1] (setting [11]) is 25%; in data set [2] (setting [12]), 30%.
As for `COc1cc(OC)nc(NC(=O)NS(=O)(=O)Cc2ccccc2C(=O)O)n1` [Bensulfuron], the results for the Ludwigia prostrate mortality (measured value) in data set [3] (10 g/ha), in [3] (20 g/ha) and in [3] (40 g/ha) were 20%, 40% and 55%, respectively. For the same molecule, the “Rice plant mortality (measured value)” value in data set [4] (10 g/ha) worked out at 0; in data set [4] (20 g/ha), 0; in [4] (40 g/ha), 1. The “Monochoria vaginalis mortality (measured value)” value amounted to 15 in data set [5] (10 g/ha), 35 in [5] (20 g/ha) and 51 in data set [5] (40 g/ha).
With `C[C@H](NC(=O)[C@H](C)NC(=O)[C@@H](N)CCP(C)(=O)O)C(=O)O` [Bilanafos], the pest or weed control at 500 g/ha in data set [1] (Amaranthus caudatus, 480 h, 500 g ai/ha, read-out: Wild amaranth mortality (measured value)) was determined as 15%; in data set [2] (480 h, 500 g ai/ha, read-out: ryegrass mortality (measured value)), 30%.
Consider `CC1(C)CON(Cc2ccccc2Cl)C1=O` [Clomazone], for which the figures for the pest or weed control at 175 g/ha in data set [1] (setting [11]) and in data set [2] (setting [12]) were 30% and 15%, respectively.
For the molecule `O=C(O)c1nc(Cl)ccc1Cl` [Clopyralid], the pest or weed control at 125 g/ha in data set [1] (setting [11]) was 10%; in [2] (setting [12]), 0%.
Regarding `CC(Oc1ccc(Oc2ccc(Cl)cc2Cl)cc1)C(=O)O` (stereo not drawn) [Diclofop], the results for the pest or weed control at 175 g/ha in [1] (setting [11]) and in [2] (setting [12]) were 0% and 30%, respectively.
With `O=C(Nc1ccc(F)cc1F)c1cccnc1Oc1cccc(C(F)(F)F)c1` [Diflufenican], the “Porippa islandica mortality, measured value” (shortened to “Porippa islandica mortality”) is listed as 5 in data set [6] (37.5 g/ha), 20 in data set [6] (75 g/ha) and 40 in data set [6] (150 g/ha). Also, the “Wheat mortality, measured value” in data set [7] (37.5 g/ha) is recorded as 0; in [7] (75 g/ha), 0; in data set [7] (150 g/ha), 1. The results for the “Capsella bursapastoris mortality, measured value” (from here on “Capsella bursapastoris mortality”) in [8] (37.5 g/ha), in data set [8] (75 g/ha) and in [8] (150 g/ha) were 6, 21 and 45, respectively. The figures for the “Lamium amplexicaule mortality, measured value” (from here on “Lamium amplexicaule mortality”) in data set [9] (37.5 g/ha), in [9] (75 g/ha) and in data set [9] (150 g/ha) were 10, 24 and 47, respectively. Besides, the “Alopecurus aequalis mortality, measured value” (shortened to “Alopecurus aequalis mortality”) in data set [10] (37.5 g/ha), in [10] (75 g/ha) and in [10] (150 g/ha) was 0 in each case.
Take `C/C(=N\NC(=O)Nc1cc(F)cc(F)c1)c1ncccc1C(=O)O` [Diflufenzopyr]: the pest or weed control at 12.5 g/ha in [1] (setting [11]) and in [2] (setting [12]) was 20% in each case.
For `CCOC1Oc2ccc(OS(C)(=O)=O)cc2C1(C)C` (stereo not drawn) [Ethofumesate], the pest or weed control at 250 g/ha turned out to be 20% in data set [1] (setting [11]) and 25% in data set [2] (setting [12]).
`CP(=O)(O)CCC(N)C(=O)O` (stereo not drawn) [Glufosinate-ammonium]: the pest or weed control at 150 g/ha in data set [1] (setting [11]) came out at 20%; in [2] (setting [12]) it was 10%.
On to `CC(C)N.O=C(O)CNCP(=O)(O)O` [Glyphosate-IPA], for which the “Wild amaranth mortality (measured value)” value in data set [1] (300 g ai/ha) came out at 10. In data set [2] (300 g ai/ha), the “ryegrass mortality (measured value)” value is recorded as 10.
Consider `COCc1cnc(C2=NC(C)(C(C)C)C(=O)N2)c(C(=O)O)c1` (stereo not drawn) [Imazamox], for which the pest or weed control at 8.3 g/ha in data set [1] (setting [11]) was found to be 20%; in [2] (setting [12]), 30%.
Take `CC(C)c1ccc(NC(=O)N(C)C)cc1` [Isoproturon]: the “Porippa islandica mortality” value was found to be 10 in [6] (150 g/ha), 26 in data set [6] (300 g/ha) and 53 in data set [6] (600 g/ha). The “Wheat mortality, measured value” in [7] (150 g/ha) is given as 0; in data set [7] (300 g/ha), 0; in data set [7] (600 g/ha) it was 1. The “Capsella bursapastoris mortality” value in data set [8] (150 g/ha) was determined as 11; in data set [8] (300 g/ha), 29; in data set [8] (600 g/ha) it was 63. Moreover, the “Lamium amplexicaule mortality” value in data set [9] (150 g/ha) was determined as 12; in [9] (300 g/ha) it was 25; in data set [9] (600 g/ha), 49. The “Alopecurus aequalis mortality” value in [10] (150 g/ha) stood at 15; in data set [10] (300 g/ha), 32; in data set [10] (600 g/ha), 64.
Consider `CCC(C)(CC)c1cc(NC(=O)c2c(OC)cccc2OC)on1` [Isoxaben], for which the pest or weed control at 31 g/ha in [1] (setting [11]) stood at 30%; in data set [2] (setting [12]) it was 0%.
`COC(=O)c1ccc(CNS(C)(=O)=O)cc1S(=O)(=O)NC(=O)Nc1nc(OC)cc(OC)n1` [Mesosulfuron]: the “Porippa islandica mortality” value stood at 12 in data set [6] (2 g/ha), 27 in [6] (4 g/ha) and 61 in data set [6] (8 g/ha). Besides, the figures for the “Wheat mortality, measured value” in [7] (2 g/ha), in [7] (4 g/ha) and in data set [7] (8 g/ha) were 0, 0 and 1, respectively. The “Capsella bursapastoris mortality” value in data set [8] (2 g/ha) is on record as 10; in [8] (4 g/ha) it was 30; in data set [8] (8 g/ha), 59. Further, the “Lamium amplexicaule mortality” value turned out to be 13 in [9] (2 g/ha), 26 in data set [9] (4 g/ha) and 55 in [9] (8 g/ha). Also, the entries for the “Alopecurus aequalis mortality” value in data set [10] (2 g/ha), in data set [10] (4 g/ha) and in [10] (8 g/ha) were 15, 32 and 64, respectively.
Take `COc1nc(C)nc(=NC(=O)NS(=O)(=O)c2ccccc2C(=O)O)[nH]1` [Metsulfuron]: the “Porippa islandica mortality” value turned out to be 5 in data set [6] (1 g/ha), 20 in data set [6] (2 g/ha) and 45 in data set [6] (4 g/ha). The “Wheat mortality, measured value” in data set [7] (1 g/ha), in data set [7] (2 g/ha) and in data set [7] (4 g/ha) was 0 throughout. Also, the entries for the “Capsella bursapastoris mortality” value in data set [8] (1 g/ha), in [8] (2 g/ha) and in data set [8] (4 g/ha) were 7, 24 and 48, respectively. Also, the “Lamium amplexicaule mortality” value worked out at 11 in data set [9] (1 g/ha), 29 in [9] (2 g/ha) and 57 in data set [9] (4 g/ha). Besides, the “Alopecurus aequalis mortality” value in data set [10] (1 g/ha), in data set [10] (2 g/ha) and in data set [10] (4 g/ha) was 0 throughout.
For the molecule `CC(C)Oc1cc(-n2nc(C(C)(C)C)oc2=O)c(Cl)cc1Cl` [Oxadiazon], the pest or weed control at 500 g/ha in [1] (setting [11]) and in [2] (setting [12]) was 30% throughout.
For `CCC(CC)Nc1c([N+](=O)[O-])cc(C)c(C)c1[N+](=O)[O-]` [Pendimethalin], the pest or weed control at 250 g/ha in [1] (setting [11]) was found to be 20%; in [2] (setting [12]) it was 30%.
Take `O=C(Nc1ccc(F)cc1)c1cccc(Oc2cccc(C(F)(F)F)c2)n1` [Picolinafen]: the “Wild amaranth mortality (measured value)” value in [1] (25 g ai/ha) came to 25. Further, the “ryegrass mortality (measured value)” value in data set [2] (25 g ai/ha) worked out at 0.
As to `COc1cc(OC)nc(NC(=O)NS(=O)(=O)c2c(C(=O)O)cnn2C)n1` [Pyrazosulfuron], the Ludwigia prostrate mortality (measured value) is 15% in data set [3] (2 g/ha); 35% in data set [3] (4 g/ha); 45% in [3] (5 g/ha); 65% in data set [3] (8 g/ha); 62% in [3] (10 g/ha). Further, the “Rice plant mortality (measured value)” value came out at 0 in data set [4] (2 g/ha); 0 in data set [4] (4 g/ha); 0 in data set [4] (5 g/ha); 1 in data set [4] (8 g/ha); 1 in data set [4] (10 g/ha). In addition, the “Monochoria vaginalis mortality (measured value)” value came out at 20 in [5] (2 g/ha); 40 in [5] (4 g/ha); 40 in data set [5] (5 g/ha); 63 in [5] (8 g/ha); 67 in data set [5] (10 g/ha).
As for `CS(=O)(=O)c1ccc(C(=O)C2C(=O)CCCC2=O)c(Cl)c1` [Sulcotrione], the pest or weed control at 75 g/ha in data set [1] (setting [11]) and in data set [2] (setting [12]) was 20% throughout.
